Laboratory results from patent publication US7265120B2, “Pyrazine derivatives and pharmaceutical use thereof” (Astellas Pharma Inc., priority 2004, dated 2007).

| melting point [°C] | Compound |
| --- | --- |
| 136 to 137.5 | CC(C)n1nc(-c2nc(OCCN(C)C)c(N)nc2-c2ccccc2)ccc1=O [Example 170, 6-{5-amino-6-[2-(dimethylamino)ethoxy]-3-phenyl-2-pyrazinyl}-2-isopropyl-3(2H)-pyridazinone] |
| 233 to 235 | CC(C)n1nc(-c2nc(OCC(F)(F)F)c(N)nc2-c2ccccc2)ccc1=O [Example 171, 6-[5-amino-3-phenyl-6-(2,2,2-trifluoroethoxy)-2-pyrazinyl]-2-isopropyl-3(2H)-pyridazinone] |
| 139 to 143 | CC(C)n1nc(-c2nc(OCCN3CCOCC3)c(N)nc2-c2ccccc2)ccc1=O [Example 172, 6-{5-amino-6-[2-(4-morpholinyl)ethoxy]-3-phenyl-2-pyrazinyl}-2-isopropyl-3(2H)-pyridazinone] |
| > 250 | CC(C)n1nc(-c2[nH]c(=O)c(N)nc2-c2ccccc2)ccc1=O [Example 174, 6-(5-amino-6-oxo-3-phenyl-1,6-dihydro-2-pyrazinyl)-2-isopropyl-3(2H)-pyridazinone] |
| 173 to 176 | CC(C)n1nc(-c2nc(OCCc3ccccc3)c(N)nc2-c2ccccc2)ccc1=O [Example 174, 6-[5-amino-3-phenyl-6-(2-phenylethoxy)-2-pyrazinyl]-2-isopropyl-3(2H)-pyridazinone] |
| 105 to 106.5 | CC(C)n1nc(-c2nc(OCCCc3ccccc3)c(N)nc2-c2ccccc2)ccc1=O [Example 175, 6-[5-amino-3-phenyl-6-(3-phenylpropoxy)-2-pyrazinyl]-2-isopropyl-3(2H)-pyridazinone] |
| 179 to 181 | CC(C)n1nc(-c2nc(OC3CCN(Cc4ccccc4)C3)c(N)nc2-c2ccccc2)ccc1=O (stereo not drawn) [Example 176, 6-{5-amino-6-[(1-benzyl-3-pyrrolidinyl)oxy]-3-phenyl-2-pyrazinyl}-2-isopropyl-3(2H)-pyridazinone] |
| 148 to 150.5 | CC(C)n1nc(-c2nc(OC3CCN(Cc4ccccc4)CC3)c(N)nc2-c2ccccc2)ccc1=O [Example 178, 6-{5-amino-6-[(1-benzyl-4-piperidinyl)oxy]-3-phenyl-2-pyrazinyl}-2-isopropyl-3(2H)-pyridazinone] |
| 139 to 141 | COCCOc1nc(-c2ccc(=O)n(C)n2)c(-c2ccccc2)nc1N [Example 180, 6-[5-amino-6-(2-methoxyethoxy)-3-phenyl-2-pyrazinyl]-2-methyl-3(2H)-pyridazinone] |
| 185 to 187 | Cn1nc(-c2nc(OCCN3CCOCC3)c(N)nc2-c2ccccc2)ccc1=O [Example 181, 6-{5-amino-6-[2-(4-morpholinyl)ethoxy]-3-phenyl-2-pyrazinyl}-2-methyl-3(2H)-pyridazinone] |
| 185 to 187 | Cn1nc(-c2nc(OCc3ccccc3)c(N)nc2-c2ccccc2)ccc1=O [Example 182, 6-[5-amino-6-(benzyloxy)-3-phenyl-2-pyrazinyl]-2-methyl-3(2H)-pyridazinone] |
| 91 to 94 | Cn1nc(-c2nc(OCCCc3ccccc3)c(N)nc2-c2ccccc2)ccc1=O [Example 183, 6-[5-amino-3-phenyl-6-(3-phenylpropoxy)-2-pyrazinyl]-2-methyl-3(2H)-pyridazinone] |
| 147 to 149 | Cn1nc(-c2nc(OC3CCN(Cc4ccccc4)CC3)c(N)nc2-c2ccccc2)ccc1=O [Example 185, 6-{5-amino-6-[(1-benzyl-4-piperidinyl)oxy]-3-phenyl-2-pyrazinyl}-2-methyl-3(2H)-pyridazinone] |
| 229 to 231 | Cn1nc(-c2nc(Oc3ccc(F)cc3)c(N)nc2-c2ccccc2)ccc1=O [Example 186, 6-[5-amino-6-(4-fluorophenoxy)-3-phenyl-2-pyrazinyl]-2-methyl-3(2H)-pyridazinone] |
| > 250 | Cn1nc(-c2nc(O)c(N)nc2-c2ccccc2)ccc1=O [Example 187, 6-(5-amino-6-hydroxy-3-phenyl-2-pyrazinyl)-2-methyl-3(2H)-pyridazinone] |
